pKi: −log10 of the molar value.
Legend:
[1] = target: Protein kinase C alpha type (Rattus norvegicus, UniProt P05696); experiment: Inhibition of [3H]PDBU binding to Protein kinase C alpha
Protein kinase C (PKC) [2] = experiment: Inhibition of [3H]PDBU binding to protein kinase C mixture; format: protein assay, Rattus norvegicus
Protein kinase C (PKC) [3] = experiment: Inhibition of [3H]-PDBU binding to protein kinase C mixture; format: protein assay, Rattus norvegicus

| Compound | pKi [1] | Ki (Protein kinase C (PKC) [2]) [nM] | Ki (Protein kinase C (PKC) [3]) [nM] |
| --- | --- | --- | --- |
| CCCCCCCCCCCCCCOC(=O)[C@@H]1CC(=O)O[C@H]1CO |  |  | 8070 |
| CCCCCCCCCCCCCCC(=O)[C@@H]1CC(=O)O[C@H]1CO |  |  | 50750 |
| CCCCCCCCCCCCCCOC(=O)C[C@@H]1CC(=O)O[C@H]1CO | 5.83 |  |  |
| CCCCCCCCCCCCCCO[C@@H]1CC(=O)O[C@H]1CO |  |  | 3310 |

Next, values leading:

| pKi [1] | Ki (Protein kinase C (PKC) [2]) [nM] | Ki (Protein kinase C (PKC) [3]) [nM] | Compound |
| --- | --- | --- | --- |
| 5.82 | 2500 |  | CCCCCCCCCCCCCC(=O)O[C@@H]1CC(=O)O[C@H]1CO |
| 6.06 |  |  | CCCCCCCCCCCCCC(=O)O[C@@H]1CC(=O)O[C@H]1CCO |
| 4.73 |  |  | CCCCCCCCCCCCCCOC(=O)C[C@@H]1CC(=O)O[C@H]1CCO |
| 5.51 |  |  | CCCCCCCCCCCCCC(=O)OC[C@@H]1CC(=O)O[C@H]1CO |

— ChEMBL document CHEMBL1127901, “Conformationally constrained analogues of dag .8. Changes in PK-C binding affinity produced by isosteric groups of the 3-O-acyl function in 2-deoxy-L-ribonolactones” (Bioorg Med Chem Lett, 1994)
